Like-named read-outs stand apart in the source and are kept apart here. Where a SMILES comes first, the peptide text is derived from it. [ ]: non-standard residue; d: D form. Hyp = O=C(O)[C@@H]1C[C@@H](O)CN1
Key:
[1] = tested on: MCF-7 human breast cancer xenografts; conditions: cited from earlier work
Procedure: Table 1 The therapeutic and preventive efficacy of AFPep * in rodent models of mammary cancer. | column: MCF-7 Human Breast Cancer Growth in SCID Mice ^1 || The efficacy of AFPep in various models of mammary cancer has been shown in multiple reports. […] A 4 mg/kg dose was assessed parenterally, and the dosage was escalated to 100 mg/kg, administered orally.

[2] = tested on: MNU-induced mammary tumors; conditions: cited from earlier work
From the text: (§1) Table 1 The therapeutic and preventive efficacy of AFPep * in rodent models of mammary cancer. | column: MNU-Induced Mammary Tumors in Sprague Dawley Rats ^2 || As models for preventive interventions, two widely used mammary cancer induction models in rats were studied to assess the cancer prevention capabilities of AFPep.

[3] = Clinical parameters in unanesthetized dogs; format: in vivo, dog
[4] = tested on: Estrogen-induced mammary tumors; conditions: cited from earlier work
From the text: as §1, with “Estrogen-Induced” for “MNU-Induced”, “ACI” for “Sprague Dawley”, “^3” for “^2”

[5] = Blood chemistry and hematology after single i.v. dose in dogs; format: in vivo, dog; parameters: Bilirubin Conjugated / WBC: unit not given here
Procedure: Monkeys (Macaca mulatta, males) were contractually available through the Animal Resource Facility at Albany Medical College. The monkeys were used to assess pharmacokinetics and tolerability, in anticipation of future human studies. For dogs and monkeys, the full panels of clinical chemistry and hematology parameters were assessed. Monkeys were housed and cared for in accordance with the Guide for the Care and Use of Laboratory Animals (National Research Council, Washington, DC, USA). They were fed a standard Old World monkey diet, enriched with fruits and vegetables and other dietary novelties.

[6] = 8-day repeat-dose study, AFPep blood levels in tumor-bearing dogs; format: in vivo, dog; conditions: for level at 0.5 h: female, dog, blood, sc, 10 mg
From the text: Previous studies utilizing repeat dosing in mice and rats established safe starting doses for studies using dogs. Female dogs with one or more spontaneously occurring mammary gland tumors greater than approximately 2 cm in maximum diameter, presenting to the Cancer Institute at the Schwarzman Animal Medical Center in New York City, were screened for inclusion in the study. […] All dogs underwent complete clinical staging, consisting of a complete blood count with cell differential, clinical chemistry, and urinalysis. Dogs were administered AFPep 10 mg s.c. once daily for 8 consecutive days. Tumors were biopsied prior to the administration of AFPep and were surgically removed on day 8 after the last injection of AFPep. Blood levels of AFPep were measured before and 30 minutes following its administration on the first day and eighth day of treatment with AFPep. Histopathology was obtained on all mammary gland tumors. Tolerability was assessed using the Veterinary Cooperative Oncology Group Common Terminology Criteria for Adverse Events. Blood chemistry and hematology analyses were performed at IDEXX Laboratories Inc. (Westbrook, ME, USA), using the Sysmex XT and Beckman AU 5800 systems. This study was approved by the Schwarzman Animal Medical Center IACUC and informed consent was obtained in writing from all owners.

[7] = tested on: ER-positive primary canine mammary cancer cells; conditions: cited from earlier work
Procedure: It is important to note that during the development of AFPep, head-to-tail cyclization was carried out to increase stability as well as oral bioavailability. Other investigators have shown that the cyclization of peptides increases bioavailability.

[8] = unanesthetized dogs, 30 min Post AFPep, mean ± SE from 6 dogs
[9] = dogs ~10 kg, 24 h after i.v. 40 mg AFPep, average from 2 dogs
[10] = dogs ~10 kg, 24 h after i.v. 40 mg AFPep, average ± range from 2 dogs, in U/L (unit assumed)
[11] = dogs ~10 kg, 24 h after i.v. 40 mg AFPep, average ± range from 2 dogs, in g/dL (unit assumed)
[12] = dogs ~10 kg, 24 h after i.v. 40 mg AFPep, average ± range from 2 dogs, in mg/dL (unit assumed)
[13] = dogs ~10 kg, 24 h after i.v. 40 mg AFPep, average ± range from 2 dogs, in mmol/L (unit assumed)

- reflux or vomiting after administration ([3]; dogs): no evidence of reflux or vomiting
- Capillary refill time ([3]; unanesthetized dogs, 30 min Post AFPep, 6 dogs): <2 s
- Body temperature ([3]; unanesthetized dogs, 30 min Post AFPep, mean from 6 dogs): 39.0 °C
- Respiration Rate [3, 8]: 28 ± 4
- liver enzymes ([5]; 4 mg/kg i.v., dogs, no anesthesia, mild manual restraint): No such elevations in liver enzymes
- Bilirubin Conjugated [5, 9]: 0
- Total Bilirubin [5, 9]: 0.1 mg/dL
- WBC ([5]; dogs ~10 kg, 24 h after i.v. 40 mg AFPep, average ± range from 2 dogs): 7.0 ± 3
- Platelet ([5]; dogs ~10 kg, 24 h after i.v. 40 mg AFPep, average ± range from 2 dogs, in 10^3/µL (unit assumed)): 274 ± 21
- RBC ([5]; dogs ~10 kg, 24 h after i.v. 40 mg AFPep, average ± range from 2 dogs, in 10^6/µL (unit assumed)): 6.9 ± 1
- HCT ([5]; dogs ~10 kg, 24 h after i.v. 40 mg AFPep, average ± range from 2 dogs, in % (unit assumed)): 46 ± 1.5
- ALP [5, 10]: 33 ± 2
- Creatine Kinase [5, 10]: 135 ± 2.7
- GGT [5, 10]: 3 ± 1
- MCV ([5]; dogs ~10 kg, 24 h after i.v. 40 mg AFPep, average ± range from 2 dogs, in fL (unit assumed)): 68 ± 0.8
- Albumin [5, 11]: 3.2 ± 0.1
- Globulin [5, 11]: 2.6 ± 0.1
- HGB [5, 11]: 15.9 ± 1
- Total Protein [5, 11]: 5.8 ± 0.1
- BUN [5, 12]: 13.2 ± 2
- Calcium [5, 12]: 10.3 ± 0.4
- Cholesterol [5, 12]: 171 ± 2
- Creatinine [5, 12]: 0.7 ± 0.1
- Glucose [5, 12]: 93 ± 9
- Phosphorous [5, 12]: 4.6 ± 0.2
- Bicarbonate TCO2 [5, 13]: 21 ± 1
- Chloride [5, 13]: 112 ± 1
- Potassium [5, 13]: 4.7 ± 0.1
- Sodium [5, 13]: 146 ± 2
- MCH ([5]; dogs ~10 kg, 24 h after i.v. 40 mg AFPep, average ± range from 2 dogs, in pg (unit assumed)): 23.2 ± 1
- AFPep blood level, Day 8 Pre-Treatment ([6]; Chihuahua, 7.53 kg, 10 mg s.c. once daily for 8 days, single animal): 0 ng/mL
- AFPep blood level, Day 8 Pre-Treatment ([6]; Pitbull, 30.2 kg, 10 mg s.c. once daily for 8 days, single animal): 0 ng/mL
- AFPep blood level, Day 8 Pre-Treatment ([6]; Pomeranian, 7.98 kg, 10 mg s.c. once daily for 8 days, single animal): 0 ng/mL
- AFPep blood level, Day 8 Pre-Treatment ([6]; Shih tzu, 11.02 kg, 10 mg s.c. once daily for 8 days, single animal): 0 ng/mL
- AFPep blood level, Day 8 Pre-Treatment ([6]; Yorkshire terrier, 5.86 kg, 10 mg s.c. once daily for 8 days, single animal): 0 ng/mL
- level at 0.5 h ([6]; Pomeranian, Pomeranian, 7.98 kg, 30 min after 10 mg s.c., single animal, read-out: AFPep blood level, Day 1 Post-Treatment): 2400 ng/mL
- level at 0.5 h ([6]; Pomeranian, Pomeranian, 7.98 kg, 30 min after dose, 10 mg s.c. once daily for 8 days, single animal, read-out: AFPep blood level, Day 8 Post-Treatment): 2100 ng/mL
- level at 0.5 h ([6]; Poodle mix, Poodle mix, 5.80 kg, 30 min after 10 mg s.c., single animal, read-out: AFPep blood level, Day 1 Post-Treatment): 4400 ng/mL
- level at 0.5 h ([6]; Poodle mix, Poodle mix, 5.80 kg, 30 min after dose, 10 mg s.c. once daily for 8 days, single animal, read-out: AFPep blood level, Day 8 Post-Treatment): 5000 ng/mL
- level at 0.5 h ([6]; Yorkshire terrier, Yorkshire terrier, 5.86 kg, 30 min after 10 mg s.c., single animal, read-out: AFPep blood level, Day 1 Post-Treatment): 2200 ng/mL
- level at 0.5 h ([6]; Yorkshire terrier, Yorkshire terrier, 5.86 kg, 30 min after dose, 10 mg s.c. once daily for 8 days, single animal, read-out: AFPep blood level, Day 8 Post-Treatment): 1900 ng/mL
- level at 0.5 h ([6]; diverse breeds, Mean ± S.D. of 6 tumor-bearing dogs, 30 min after 10 mg s.c., first day, read-out: AFPep blood level, Day 1 Post-Treatment): 3600 ± 1200 ng/mL
- level at 0.5 h ([6]; diverse breeds, Mean ± S.D. of 6 tumor-bearing dogs, 30 min after the day-8 dose, 10 mg s.c. once daily for 8 days, read-out: AFPep blood level, Day 8 Post-Treatment): 2500 ± 600 ng/mL
- level at 0.5 h ([6]; summary of Table 6, 30 minutes post-AFPep, 10 mg s.c. once a day for 8 days, 6 tumor-bearing dogs, read-out: AFPep blood levels): 2000 to 3000 ng/mL
SMILES: CC(C)[C@@H]1NC(=O)[C@@H]2C[C@@H](O)CN2C(=O)[C@H]([C@@H](C)O)NC(=O)[C@H](CCCCN)NC(=O)[C@H](CCC(=O)O)NC(=O)[C@H](CC(N)=O)NC(=O)CNC(=O)[C@@H]2C[C@@H](O)CN2C(=O)[C@H](CC(N)=O)NC1=O [AFPep] (cyclo(EKT[Hyp]VN[Hyp]GN))
- MCF-7 Human Breast Cancer Growth in SCID Mice (tumor volume) ([1]; AFPep 100 μg/mouse (4 mg/kg) oral gavage once daily for 14 days, established xenografts, p < 0.05 vs saline): 30 mm³
- blood levels of AFPep needed for anti-breast cancer activity [1]: 10^−7 M
- minimum blood level (Cmax) needed for stoppage of xenograft growth ([1]; dose-response studies, human breast cancer xenografts in immune-deficient mice): 0.1 µg/mL
- minimum AUC needed for stoppage of xenograft growth ([1]; dose-response studies, xenografts in mice): 6.5 µg·min/mL
- tumor outgrowth when dosing begun immediately following tumor implantation ([1]; once daily, 30-day observation period): completely prevented
- growth of established MCF-7 xenografts ([1]; once-daily oral 4 mg/kg over a 14-day period, immunodeficient mice): almost completely stopped in their growth
- MNU-Induced Mammary Tumors in Sprague Dawley Rats, % of Rats with Tumors ([2]; MNU 50 mg/kg, AFPep 4 mg/kg s.c. once daily for 23 days from 10 days after MNU, p < 0.05): 40 * %
- latency period of cancer appearance ([2]; chemically induced model): prolonged
- other clinical indicators (mobility, playfulness, appetite, stool consistency, heart rate, respiration rate, capillary refill time, body temperature) ([3]; dogs): remained normal
- Heart Rate [3, 8]: 112 ± 5
- Estrogen-Induced Mammary Tumors in ACI Rats, % of Rats with Tumors ([4]; estradiol Silastic implant, AFPep s.c. once daily, p < 0.05): 48 * %
- latency period of cancer appearance ([4]; hormone-induced model): prolonged
- changes to clinical chemistry and hematology values ([5]; 4 mg/kg i.v., normal beagle dogs): In no case did exposure to AFPep result in significant changes
- ALT [5, 10]: 16 ± 1
- AST [5, 10]: 20 ± 1
- activity against ER-positive primary canine mammary cancer cells growing in culture [7]: effective

Reference: PMC9913752, “Proof-of-Concept Study of an Alpha-Fetoprotein-Derived Peptide for the Management of Canine Mammary Cancer” (Animals : an Open Access Journal from MDPI, 2023)
